Results from patent US4605744A, “Imidazole derivatives” (Hoffmann-La Roche Inc., priority 1985, dated 1986).
In brackets after ≈: the same amount, converted by molar mass. Where a name gives a salt, the structure may show the parent alone. Read-outs that look alike come from different tables or passages of the source.

Legend:
Test in all cases: In vitro antibacterial activity (MIC)
Assay type in all cases: cell-based
S. typhi P58A = details: Salmonella enterica, TYPHI
In short: (§1)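 Mueller-Hinton broth carries the compound at 128–0.008 μg/ml; diluted drug may be used fresh or stored frozen at -10° to -70° C before use. Wells are seeded with a 10^-2 dilution of overnight culture and incubated overnight at 37° C.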

E. coli 5152 = test system: E. coli 5152
In short: as §1

E. coli 48 = test system: E. coli 48
In short: as §1

K. pneumoniae 35 = test system: K. pneumoniae 35
In short: as §1

C. freundii CDC6 = details: Citrobacter freundii
In short: as §1

E. coli 503-455 = test system: E. coli 503-455
In short: as §1

E. coli 4 = test system: E. coli 4
In short: as §1

E. coli R-563 = details: Escherichia coli
In short: as §1

E. cloacae 6951 = test system: E. cloacae 6951
In short: as §1

E. coli 387-1 = test system: E. coli 387-1
In short: as §1

S. marcescens S1 = details: Serratia marcescens, S1, S. marcescens S1; read-out: MIC
In short: as §1

K. pneumoniae 503-964 = test system: K. pneumoniae 503-964
In short: as §1

C. diversus CDC 1663-72 = details: Citrobacter koseri, CDC166372
In short: as §1

S. pneumoniae 6301 = test system: S. pneumoniae 6301
In short: as §1

P. aeruginosa 5700 = details: Pseudomonas aeruginosa, 5700, P. aeruginosa 5700; read-out: MIC
In short: as §1

S. pyogenes 503-782 = details: Streptococcus pyogenes, 503782; S. pyogenes 503-782; read-out: MIC
In short: as §1

P. aeruginosa 503-56 = details: Pseudomonas aeruginosa, 50356, P. aeruginosa 503-56; read-out: MIC
In short: as §1

S. pneumoniae 6302 = details: Streptococcus pneumoniae, 6302, S. pneumoniae 6302; read-out: MIC
In short: as §1

P. aeruginosa Stone 130 = details: Pseudomonas aeruginosa, STONE130, read-out: MIC
In short: as §1

S. faecalis C1 = details: Enterococcus faecalis; S. faecalis C1; read-out: MIC
In short: as §1

P. aeruginosa B = details: Pseudomonas aeruginosa, read-out: MIC
In short: as §1

P. aeruginosa 8710 = details: Pseudomonas aeruginosa; P. aeruginosa 8710; read-out: MIC
In short: as §1

[1] = Escherichia coli, 5152, E. coli 5152, read-out: MIC
[2] = Escherichia coli, 48, E. coli 48, read-out: MIC
[3] = Klebsiella pneumoniae, K. pneumoniae 35, read-out: MIC
[4] = CDC6, C. freundii CDC6, read-out: MIC
[5] = Escherichia coli, 503455, E. coli 503-455, read-out: MIC
[6] = Enterobacter cloacae, 6951, E. cloacae 6951, read-out: MIC
[7] = Escherichia coli, 3871, E. coli 387-1, read-out: MIC
[8] = Klebsiella pneumoniae, 503964, K. pneumoniae 503-964, read-out: MIC
[9] = C. diversus CDC 1663-72, read-out: MIC
[10] = Streptococcus pneumoniae, 6301, S. pneumoniae 6301, read-out: MIC
[11] = Escherichia coli, 4, E. coli 4, read-out: MIC
[12] = R563, E. coli R-563, read-out: MIC

| SMILES | MIC (S. typhi P58A) | MIC (E. coli 5152; [1]) | MIC (E. coli 48; [2]) | MIC (K. pneumoniae 35; [3]) | MIC (C. freundii CDC6; [4]) | MIC (E. coli 503-455; [5]) | MIC (E. cloacae 6951; [6]) | MIC (E. coli 387-1; [7]) | MIC (S. marcescens S1) | MIC (K. pneumoniae 503-964; [8]) | MIC (C. diversus CDC 1663-72; [9]) | MIC (S. pneumoniae 6301; [10]) | MIC (P. aeruginosa 5700) | MIC (S. pyogenes 503-782) | MIC (P. aeruginosa 503-56) | MIC (S. pneumoniae 6302) | MIC (E. coli 4; [11]) | MIC (E. coli R-563; [12]) | MIC (P. aeruginosa Stone 130) | MIC (P. aeruginosa 8710) | further results |
| --- | --- | --- | --- | --- | --- | --- | --- | --- | --- | --- | --- | --- | --- | --- | --- | --- | --- | --- | --- | --- | --- |
| CC1(C)S[C@@H]2[C@H](N=CN3CCC(CCCn4ccnc4CO)CC3)C(=O)N2[C@H]1C(=O)O [R, [2S-(2alpha,5alpha,6beta)]-6-[[[4-[3-[2-(hydroxymethyl)-1H-imidazol-1-yl]propyl-1-piperidinyl]methylene]amino]-3,3-dimethyl-7-oxo-4-thia-1-azabicyclo[3.2.0]heptane-2-carboxylic acid hydrochloride 1.1 molar hydrate] | 0.062 µg/mL | 4 µg/mL | 0.016 µg/mL | 0.062 µg/mL | 0.062 µg/mL | 0.5 µg/mL | 8 µg/mL | 2 µg/mL | 0.062 µg/mL | 0.016 µg/mL | 0.016 µg/mL |  |  |  |  |  |  |  |  |  | MIC (E. coli 4; Escherichia coli, 4): 2 µg/mL; MIC (E. coli R-563; R563): 4 µg/mL |
| CC1(C)S[C@@H]2[C@H](N=CN3CCC(Cn4ccnc4N)CC3)C(=O)N2[C@H]1C(=O)O [H, [2S-(2alpha,5alpha,6beta)]-6-[[[4-[(2-amino-1H-imidazol-1-yl)methyl-1-piperidinyl]methylene]amino]-3,3-dimethyl-7-oxo-4-thia-1-azabicyclo[3.2.0]heptane-2-carboxylic acid hydrochloride] | 0.062 µg/mL | 8 µg/mL | 0.062 µg/mL | 0.25 µg/mL | 0.062 µg/mL |  |  | 0.125 µg/mL | 0.125 µg/mL | 0.125 µg/mL | 0.062 µg/mL | 1 µg/mL | 0.125 µg/mL | 64 µg/mL | 32 µg/mL | 1 µg/mL | 0.062 µg/mL | 0.062 µg/mL | > 128 µg/mL | 128 µg/mL | MIC (E. coli 503-455; Escherichia coli, 503455): 1 µg/mL; MIC (S. faecalis C1): 64 µg/mL; MIC (E. cloacae 6951; Enterobacter cloacae, 6951): 4 µg/mL; MIC (P. aeruginosa B): 0.5 µg/mL |
| CC1(C)S[C@@H]2[C@H](N=CN3CCC(Cn4ccnc4)CC3)C(=O)N2[C@H]1C(=O)O [Compound A] | 0.25 µg/mL (≈ 0.639 µM) | 16 µg/mL (≈ 40.9 µM) | 0.062 µg/mL (≈ 0.158 µM) | 0.25 µg/mL (≈ 0.639 µM) |  | 2 µg/mL (≈ 5.11 µM) | 4 µg/mL (≈ 10.2 µM) |  | 0.25 µg/mL (≈ 0.639 µM) | 0.016 µg/mL (≈ 0.0409 µM) |  | 1 µg/mL (≈ 2.55 µM) | 0.25 µg/mL (≈ 0.639 µM) | 128 µg/mL (≈ 327 µM) | > 128 µg/mL | 2 µg/mL (≈ 5.11 µM) | 0.062 µg/mL (≈ 0.158 µM) |  | > 128 µg/mL | > 128 µg/mL | MIC (C. freundii CDC6; CDC6): 0.125 µg/mL (≈ 0.319 µM); MIC (E. coli R-563; R563): 0.125 µg/mL (≈ 0.319 µM); MIC (S. faecalis C1): 128 µg/mL (≈ 327 µM); MIC (E. coli 387-1; Escherichia coli, 3871): 0.125 µg/mL (≈ 0.319 µM); MIC (P. aeruginosa B): 0.25 µg/mL (≈ 0.639 µM); MIC (C. diversus CDC 1663-72): 0.125 µg/mL (≈ 0.319 µM) |
| Cc1nccn1CCCC1CCN(C=N[C@@H]2C(=O)N3[C@@H]2SC(C)(C)[C@@H]3C(=O)O)CC1 [F, [2S-(2alpha,5alpha,6beta)]-3,3-dimethyl-6-[[[4-[3-(2-methyl-1H-imidazol-1-yl)propyl]-1-piperidinyl]methylene]amino]-7-oxo-4-thia-1-azabicyclo[3.2.0]heptane-2-carboxylic acid 1.15 molar hydrochloride 1.75 molar hydrate] | 0.062 µg/mL | 8 µg/mL | 0.062 µg/mL | 0.125 µg/mL | 0.062 µg/mL | 2 µg/mL | 8 µg/mL | 0.125 µg/mL | 0.5 µg/mL |  | 0.062 µg/mL | 1 µg/mL | 0.5 µg/mL | 128 µg/mL | > 128 µg/mL | 2 µg/mL | 0.062 µg/mL | 0.062 µg/mL | > 128 µg/mL | > 128 µg/mL | MIC (S. faecalis C1): 128 µg/mL; MIC (P. aeruginosa B): 0.25 µg/mL; MIC (K. pneumoniae 503-964; Klebsiella pneumoniae, 503964, K. pneumoniae 503-964): 4 µg/mL |
| CC1(C)S[C@@H]2[C@H](N=CN3CCC(CCCn4ccnc4[N+](=O)[O-])CC3)C(=O)N2[C@H]1C(=O)O [K, [2S-(2alpha,5alpha,6beta)]-6-[[[4-[3-(2-nitro-1H-imidazol-1-yl)propyl]piperidinyl]methylene]amino]-3,3-dimethyl-7-oxo-4-thia-1-azabicyclo[3.2.0]heptane-2-carboxylic acid hydrochloride 0.66 molar hydrate] | 0.5 µg/mL |  |  | 0.5 µg/mL | 0.5 µg/mL |  | 16 µg/mL | 0.5 µg/mL | 2 µg/mL | 0.5 µg/mL | 0.25 µg/mL | 1 µg/mL | 4 µg/mL | 128 µg/mL | > 128 µg/mL | 1 µg/mL | 0.5 µg/mL | 0.5 µg/mL | > 128 µg/mL | > 128 µg/mL | MIC (E. coli 5152; Escherichia coli, 5152): 8 µg/mL; MIC (E. coli 48; Escherichia coli, 48): 0.25 µg/mL; MIC (E. coli 503-455; Escherichia coli, 503455): 4 µg/mL; MIC (S. faecalis C1): 128 µg/mL; MIC (P. aeruginosa B): 0.25 µg/mL |
| CC1(C)S[C@@H]2[C@H](N=CN3CCC(Cc4ncc[nH]4)CC3)C(=O)N2[C@H]1C(=O)O [Q, [2S-(2alpha,5alpha,6beta)]-6-[[[4-(1H-imidazol-2-yl-methyl)-1-piperidinyl]methylene]amino]-3,3-dimethyl-7-oxo-4-thia-1-azabicyclo[3.2.0]heptane-2-carboxylic acid hydrochloride] | 8 µg/mL | 64 µg/mL | 8 µg/mL | 0.25 µg/mL | 64 µg/mL | 1 µg/mL | 16 µg/mL | 0.062 µg/mL | 0.125 µg/mL | 0.5 µg/mL | 0.062 µg/mL |  |  |  |  | 2 µg/mL | 0.062 µg/mL | 0.062 µg/mL | > 128 µg/mL | 128 µg/mL |  |
| CC1(C)S[C@@H]2[C@H](N=CN3CCCC(c4ncc[nH]4)C3)C(=O)N2[C@H]1C(=O)O (stereo partly drawn) [P, [2S-(2alpha,5alpha,6beta)]-6-[[[3-(1H-imidazol-2-yl)-1-piperidinyl]methylene]amino]-3,3-dimethyl-7-oxo-4-thia-1-azabicyclo[3.2.0]heptane-2-carboxylicacid hydrochloride] | 2 µg/mL | > 128 µg/mL | 2 µg/mL |  | 4 µg/mL | 64 µg/mL | > 128 µg/mL |  | 8 µg/mL | 8 µg/mL | 2 µg/mL | 1 µg/mL | 8 µg/mL |  |  |  | 2 µg/mL | 2 µg/mL |  |  | MIC (K. pneumoniae 35; Klebsiella pneumoniae, 35, K. pneumoniae 35): 16 µg/mL; MIC (E. coli 387-1; Escherichia coli, 3871): 4 µg/mL |
| CC1(C)S[C@@H]2[C@H](N=CN3CCC(CCn4ccnc4)CC3)C(=O)N2[C@H]1C(=O)O [B, [2S-2alpha,5alpha,6beta)]-6-[[[4-[2-(1H-imidazol-1-yl)ethyl]-1-piperidinyl]methylene]amino]-3,3-dimethyl-7-oxo-4-thia-1-azabicyclo[3.2.0]heptane-2-carboxylic acid hydrate hydrochloride] | 0.062 µg/mL |  | 0.25 µg/mL | 1 µg/mL | 0.25 µg/mL |  | 16 µg/mL | 8 µg/mL | 0.5 µg/mL | 0.25 µg/mL | 0.25 µg/mL |  | > 128 µg/mL | 8 µg/mL |  |  |  | 8 µg/mL |  | > 128 µg/mL | MIC (S. pneumoniae 6301; Streptococcus pneumoniae, 6301): 4 µg/mL; MIC (E. coli 5152; Escherichia coli, 5152): 16 µg/mL; MIC (E. coli 503-455; Escherichia coli, 503455): 1 µg/mL; MIC (E. coli 4; Escherichia coli, 4): 8 µg/mL; MIC (S. faecalis C1): > 128 µg/mL; MIC (P. aeruginosa B): > 128 µg/mL |
| CN(C)C=Nc1nccn1CCCC1CCN(C=N[C@@H]2C(=O)N3[C@@H]2SC(C)(C)[C@@H]3C(=O)O)CC1 [S, [2S-(2alpha,5alpha,6beta)]-6-[[[4-[3-[2-[[(dimethylamino)methylene]amino]-1H-imidazol-1-yl]propyl]-1-piperidinyl]methylene]amino]-3,3-dimethyl-7-oxo-4-thia-1-azabicyclo[3.2.0]heptane-2-carboxylic acid 1.7 molar hydrochloride 2.6 molar hydrate] | 0.25 µg/mL | 8 µg/mL |  | 0.5 µg/mL | 0.5 µg/mL |  | 8 µg/mL | 2 µg/mL | 4 µg/mL | 0.5 µg/mL | 0.5 µg/mL |  |  |  | > 128 µg/mL |  |  |  |  |  | MIC (E. coli 48; Escherichia coli, 48): 0.5 µg/mL; MIC (E. coli 503-455; Escherichia coli, 503455): 1 µg/mL; MIC (E. coli 4; Escherichia coli, 4): 4 µg/mL; MIC (E. coli R-563; R563): 8 µg/mL |
